US20020048549A1, “Radioactive transition metal nitride heterocomplex” (priority 1996, published 2002)

Assay: Biodistribution of 99mTcN-DESI in SD rats (Group A alone, Group B with unlabeled desipramine)
Type: in vivo
Method: The biodistribution of the ^99mTcN-DESI in SD rats obtained in Example 15 was measured.
Before being injected into the rats, the ^99mTcN-DESI was separated and purified from the excess and free bidentate ligand by HPLC. The active ingredient of the complex was further purified by passage through a Sep-Pak cartridge activated with 5 ml of 95% ethanol. The final active ingredient was recovered with 95% ethanol and diluted with physiological saline containing 10% Tween 80.
The rats were divided into two groups, group A and group B. Into each rat in group A was injected 20 μCi of the ^99mTcN-DESI. Into each rat in group B were injected 20 μCi of the ^99mTcN-DESI and 1.0 mg/kg of unlabeled desipramine at the same time.
SD rats weighing about 250 g were put under intraperitoneal anesthesia with a mixture of xylazine (18 mg/kg) and ketamine (15 mg/kg) and given an injection in the jugular vein. Then, the organs (brain, heart, lung, liver, spleen, kidney, muscle, adrenal, and submaxillary gland) were excised from the rats at different intervals of time, washed and then weighed. In addition, blood samples were collected and then weighed. The data on the biodistribution are expressed as the mean±significant difference of the percentage of radioactivity level per gram of the organ weight based on the dose of radioactivity, (% dose/g). The measurement was carried out using groups of 3 rats each.

[1] = Group A (complex alone), 10 min
[2] = Group A (complex alone), 30 min
[3] = Group A (complex alone), 60 min
[4] = Group A (complex alone), 120 min
[5] = Group A (complex alone), 150 min
[6] = Group B (with 1.0 mg/kg unlabeled desipramine), 2 min
[7] = Group B (with 1.0 mg/kg unlabeled desipramine), 5 min
[8] = Group B (with 1.0 mg/kg unlabeled desipramine), 10 min
[9] = Group B (with 1.0 mg/kg unlabeled desipramine), 30 min
[10] = Group B (with 1.0 mg/kg unlabeled desipramine), 60 min
[11] = Group B (with 1.0 mg/kg unlabeled desipramine), 120 min
[12] = Group B (with 1.0 mg/kg unlabeled desipramine), 150 min

COCCC[P+]1(CCCOC)CCN(CCOC)CC[P+](CCCOC)(CCCOC)[99Tc-2]12(#[N])[NH]C(C(=O)N(C)CCCN1c3ccccc3CCc3ccccc31)C[S]2 (centres unmarked) [^99mTcN-DESI]
Adrenal glands % dose/g (Group A (complex alone), 2 min): 4.227 ± 0.089 % dose/g | Blood % dose/g (Group A (complex alone), 2 min): 0.383 ± 0.287 % dose/g | Brain % dose/g (Group A (complex alone), 2 min): 0.082 ± 0.010 % dose/g | Heart % dose/g (Group A (complex alone), 2 min): 0.904 ± 0.062 % dose/g | Kidney % dose/g (Group A (complex alone), 2 min): 6.518 ± 0.821 % dose/g | Liver % dose/g (Group A (complex alone), 2 min): 7.259 ± 0.005 % dose/g | Lung % dose/g (Group A (complex alone), 2 min): 0.565 ± 0.074 % dose/g | Muscle % dose/g (Group A (complex alone), 2 min): 0.110 ± 0.004 % dose/g | Spleen % dose/g (Group A (complex alone), 2 min): 1.833 ± 0.249 % dose/g | Submaxillary glands % dose/g (Group A (complex alone), 2 min): 1.791 ± 0.249 % dose/g | Adrenal glands % dose/g (Group A (complex alone), 5 min): 3.710 ± 0.682 % dose/g | Blood % dose/g (Group A (complex alone), 5 min): 0.349 ± 0.033 % dose/g | Brain % dose/g (Group A (complex alone), 5 min): 0.079 ± 0.002 % dose/g | Heart % dose/g (Group A (complex alone), 5 min): 0.881 ± 0.071 % dose/g | Kidney % dose/g (Group A (complex alone), 5 min): 6.193 ± 0.421 % dose/g | Liver % dose/g (Group A (complex alone), 5 min): 5.798 ± 0.549 % dose/g | Lung % dose/g (Group A (complex alone), 5 min): 0.425 ± 0.094 % dose/g | Muscle % dose/g (Group A (complex alone), 5 min): 0.105 ± 0.010 % dose/g | Spleen % dose/g (Group A (complex alone), 5 min): 1.927 ± 0.155 % dose/g | Submaxillary glands % dose/g (Group A (complex alone), 5 min): 1.721 ± 0.460 % dose/g | Adrenal glands % dose/g [1]: 5.353 ± 0.339 % dose/g | Blood % dose/g [1]: 0.212 ± 0.012 % dose/g | Brain % dose/g [1]: 0.076 ± 0.003 % dose/g | Heart % dose/g [1]: 0.894 ± 0.016 % dose/g | Kidney % dose/g [1]: 6.295 ± 0.329 % dose/g | Liver % dose/g [1]: 4.539 ± 0.286 % dose/g | Lung % dose/g [1]: 0.399 ± 0.011 % dose/g | Muscle % dose/g [1]: 0.096 ± 0.009 % dose/g | Spleen % dose/g [1]: 2.139 ± 0.200 % dose/g | Submaxillary glands % dose/g [1]: 1.876 ± 0.030 % dose/g | Adrenal glands % dose/g [2]: 5.153 ± 0.039 % dose/g | Blood % dose/g [2]: 0.095 ± 0.024 % dose/g | Brain % dose/g [2]: 0.070 ± 0.005 % dose/g | Heart % dose/g [2]: 0.951 ± 0.103 % dose/g | Kidney % dose/g [2]: 10.11 ± 1.762 % dose/g | Liver % dose/g [2]: 3.069 ± 0.672 % dose/g | Lung % dose/g [2]: 0.351 ± 0.085 % dose/g | Muscle % dose/g [2]: 0.098 ± 0.021 % dose/g | Spleen % dose/g [2]: 1.965 ± 0.158 % dose/g | Submaxillary glands % dose/g [2]: 2.065 ± 0.069 % dose/g | Adrenal glands % dose/g [3]: 4.800 ± 1.737 % dose/g | Blood % dose/g [3]: 0.069 ± 0.008 % dose/g | Brain % dose/g [3]: 0.064 ± 0.003 % dose/g | Heart % dose/g [3]: 0.931 ± 0.025 % dose/g | Kidney % dose/g [3]: 6.227 ± 1.020 % dose/g | Liver % dose/g [3]: 2.809 ± 0.739 % dose/g | Lung % dose/g [3]: 0.224 ± 0.070 % dose/g | Muscle % dose/g [3]: 0.108 ± 0.015 % dose/g | Spleen % dose/g [3]: 1.873 ± 0.667 % dose/g | Submaxillary glands % dose/g [3]: 1.491 ± 1.149 % dose/g | Adrenal glands % dose/g [4]: 4.220 ± 0.182 % dose/g | Blood % dose/g [4]: 0.068 ± 0.001 % dose/g | Brain % dose/g [4]: 0.051 ± 0.001 % dose/g | Heart % dose/g [4]: 0.806 ± 0.080 % dose/g | Kidney % dose/g [4]: 5.538 ± 0.607 % dose/g | Liver % dose/g [4]: 1.463 ± 0.186 % dose/g | Lung % dose/g [4]: 0.151 ± 0.001 % dose/g | Muscle % dose/g [4]: 0.397 ± 0.033 % dose/g | Spleen % dose/g [4]: 1.453 ± 0.085 % dose/g | Submaxillary glands % dose/g [4]: 1.351 ± 0.037 % dose/g | Adrenal glands % dose/g [5]: 5.013 ± 1.061 % dose/g | Blood % dose/g [5]: 0.058 ± 0.008 % dose/g | Brain % dose/g [5]: 0.034 ± 0.004 % dose/g | Heart % dose/g [5]: 0.884 ± 0.075 % dose/g | Kidney % dose/g [5]: 7.182 ± 0.349 % dose/g | Liver % dose/g [5]: 1.375 ± 0.054 % dose/g | Lung % dose/g [5]: 0.194 ± 0.002 % dose/g | Muscle % dose/g [5]: 0.090 ± 0.009 % dose/g | Spleen % dose/g [5]: 1.461 ± 0.132 % dose/g | Submaxillary glands % dose/g [5]: 1.976 ± 0.293 % dose/g | Adrenal glands % dose/g [6]: 4.314 ± 0.718 % dose/g | Blood % dose/g [6]: 0.467 ± 0.011 % dose/g | Brain % dose/g [6]: 0.032 ± 0.004 % dose/g | Heart % dose/g [6]: 0.793 ± 0.037 % dose/g | Kidney % dose/g [6]: 5.492 ± 0.602 % dose/g | Liver % dose/g [6]: 5.149 ± 0.787 % dose/g | Lung % dose/g [6]: 0.488 ± 0.042 % dose/g | Muscle % dose/g [6]: 0.103 ± 0.002 % dose/g | Spleen % dose/g [6]: 1.841 ± 0.197 % dose/g | Submaxillary glands % dose/g [6]: 1.878 ± 0.09 % dose/g | Adrenal glands % dose/g [7]: 4.480 ± 0.991 % dose/g | Blood % dose/g [7]: 0.277 ± 0.028 % dose/g | Brain % dose/g [7]: 0.029 ± 0.003 % dose/g | Heart % dose/g [7]: 0.819 ± 0.052 % dose/g | Kidney % dose/g [7]: 5.899 ± 1.397 % dose/g | Liver % dose/g [7]: 6.420 ± 0.378 % dose/g | Lung % dose/g [7]: 0.353 ± 0.028 % dose/g | Muscle % dose/g [7]: 0.101 ± 0.014 % dose/g | Spleen % dose/g [7]: 2.032 ± 0.197 % dose/g | Submaxillary glands % dose/g [7]: 1.786 ± 0.201 % dose/g | Adrenal glands % dose/g [8]: 4.349 ± 0.164 % dose/g | Blood % dose/g [8]: 0.170 ± 0.020 % dose/g | Brain % dose/g [8]: 0.018 ± 0.001 % dose/g | Heart % dose/g [8]: 0.814 ± 0.023 % dose/g | Kidney % dose/g [8]: 5.192 ± 0.036 % dose/g | Liver % dose/g [8]: 4.732 ± 0.057 % dose/g | Lung % dose/g [8]: 0.348 ± 0.003 % dose/g | Muscle % dose/g [8]: 0.086 ± 0.007 % dose/g | Spleen % dose/g [8]: 1.559 ± 0.074 % dose/g | Submaxillary glands % dose/g [8]: 1.669 ± 0.126 % dose/g | Adrenal glands % dose/g [9]: 6.120 ± 2.224 % dose/g | Blood % dose/g [9]: 0.169 ± 0.028 % dose/g | Brain % dose/g [9]: 0.018 ± 0.003 % dose/g | Heart % dose/g [9]: 0.832 ± 0.170 % dose/g | Kidney % dose/g [9]: 7.883 ± 1.689 % dose/g | Liver % dose/g [9]: 4.957 ± 0.168 % dose/g | Lung % dose/g [9]: 0.27 ± 0.117 % dose/g | Muscle % dose/g [9]: 0.091 ± 0.011 % dose/g | Spleen % dose/g [9]: 1.339 ± 0.380 % dose/g | Submaxillary glands % dose/g [9]: 1.042 ± 0.123 % dose/g | Adrenal glands % dose/g [10]: 4.321 ± 0.712 % dose/g | Blood % dose/g [10]: 0.074 ± 0.016 % dose/g | Brain % dose/g [10]: 0.016 ± 0.002 % dose/g | Heart % dose/g [10]: 0.693 ± 0.057 % dose/g | Kidney % dose/g [10]: 5.176 ± 0.584 % dose/g | Liver % dose/g [10]: 2.505 ± 0.113 % dose/g | Lung % dose/g [10]: 0.253 ± 0.014 % dose/g | Muscle % dose/g [10]: 0.110 ± 0.024 % dose/g | Spleen % dose/g [10]: 1.403 ± 0.209 % dose/g | Submaxillary glands % dose/g [10]: 1.596 ± 0.138 % dose/g | Adrenal glands % dose/g [11]: 4.588 ± 0.985 % dose/g | Blood % dose/g [11]: 0.050 ± 0.007 % dose/g | Brain % dose/g [11]: 0.004 ± 0.000 % dose/g | Heart % dose/g [11]: 0.745 ± 0.063 % dose/g | Kidney % dose/g [11]: 5.737 ± 0.093 % dose/g | Liver % dose/g [11]: 1.159 ± 0.09 % dose/g | Lung % dose/g [11]: 0.206 ± 0.048 % dose/g | Muscle % dose/g [11]: 0.343 ± 0.443 % dose/g | Spleen % dose/g [11]: 1.865 ± 0.313 % dose/g | Submaxillary glands % dose/g [11]: 1.641 ± 0.280 % dose/g | Adrenal glands % dose/g [12]: 4.09 ± 0.294 % dose/g | Blood % dose/g [12]: 0.050 ± 0.014 % dose/g | Brain % dose/g [12]: 0.001 ± 0.000 % dose/g | Heart % dose/g [12]: 0.815 ± 0.070 % dose/g | Kidney % dose/g [12]: 5.646 ± 1.192 % dose/g | Liver % dose/g [12]: 1.253 ± 0.006 % dose/g | Lung % dose/g [12]: 0.163 ± 0.036 % dose/g | Muscle % dose/g [12]: 0.096 ± 0.007 % dose/g | Spleen % dose/g [12]: 1.637 ± 0.147 % dose/g | Submaxillary glands % dose/g [12]: 1.983 ± 0.339 % dose/g | accumulation in adrenal (SD rats): very large amount | accumulation in heart (SD rats): considerable amount | elimination through liver and kidney (SD rats): very rapidly eliminated
